Reference: patent US7060792B2, “Protection against ischemia and reperfusion injury” (University of Kentucky Research Foundation, priority 2000, dated 2006)
Square brackets hold non-standard residues; d marks the D form. Peptide text beside a SMILES is read from it.

Experiment: Solubility in water or saline
Type: physicochemical
From the text: One of the compounds is a heptapeptide having the sequence Tyr-D-Met-Phe-His-Leu-Met-Asp-NH2 SEQ ID NO:1, hereinafter referred to as deltorphin A. Another of the compounds is a thirteen amino acid sequence Tyr-D-Ala-Phe-Gly-Tyr-Pro-Ser-Gly-Glu-Ala-Lys-Lys-Ile SEQ ID NO:2. The peptides may be produced by a number of methods, such as using an automated peptide synthesizer, through recombinant molecular techniques, or isolated from a naturally occurring source, as is known to one skilled in the art. Deltorphin A SEQ ID NO:1 has a molecular weight of 955.1 daltons, and Dermorphin H SEQ ID NO:2 has a molecular weight of about 1430.64 daltons. […] The initial alkaline pH is adjusted to 7.4 with 1 N HCl.

CSCC[C@H](NC(=O)[C@H](CC(C)C)NC(=O)[C@H](Cc1cnc[nH]1)NC(=O)[C@H](Cc1ccccc1)NC(=O)[C@@H](CCSC)NC(=O)[C@@H](N)Cc1ccc(O)cc1)C(=O)N[C@@H](CC(=O)O)C(N)=O [Deltorphin A, Tyr-D-Met-Phe-His-Leu-Met-Asp-NH2] (H-Y[dM]FHLMD-NH2)
solubility: insoluble in water or saline

CC[C@H](C)[C@H](NC(=O)[C@H](CCCCN)NC(=O)[C@H](CCCCN)NC(=O)[C@H](C)NC(=O)[C@H](CCC(=O)O)NC(=O)CNC(=O)[C@H](CO)NC(=O)[C@@H]1CCCN1C(=O)[C@H](Cc1ccc(O)cc1)NC(=O)CNC(=O)[C@H](Cc1ccccc1)NC(=O)[C@@H](C)NC(=O)[C@@H](N)Cc1ccc(O)cc1)C(=O)O [Dermorphin H, Tyr-D-Ala-Phe-Gly-Tyr-Pro-Ser-Gly-Glu-Ala-Lys-Lys-Ile] (H-Y[dA]FGYPSGEAKKI-OH; N-terminus and C-terminus assumed)
solubility: insoluble in water or saline
